Results as given in ChEMBL document CHEMBL1949506, “Discovery of CS-2100, a potent, orally active and S1P3-sparing S1P1 agonist” (Bioorg Med Chem Lett, 2012).
pEC50: −log10 of the molar value.

What was measured:
[1] = biological target: Sphingosine 1-phosphate receptor 1 (Homo sapiens, UniProt P21453); test: Agonist activity at human S1P1 receptor assessed as stimulation of [35S]GTPgamma binding; type: functional
[2] = biological target: Sphingosine 1-phosphate receptor 3 (Homo sapiens, UniProt Q99500); test: Agonist activity at human S1P3 receptor assessed as stimulation of [35S]GTPgamma binding; type: functional
Sphingosine 1-phosphate receptor 3, sequence (Q99500 whole entry): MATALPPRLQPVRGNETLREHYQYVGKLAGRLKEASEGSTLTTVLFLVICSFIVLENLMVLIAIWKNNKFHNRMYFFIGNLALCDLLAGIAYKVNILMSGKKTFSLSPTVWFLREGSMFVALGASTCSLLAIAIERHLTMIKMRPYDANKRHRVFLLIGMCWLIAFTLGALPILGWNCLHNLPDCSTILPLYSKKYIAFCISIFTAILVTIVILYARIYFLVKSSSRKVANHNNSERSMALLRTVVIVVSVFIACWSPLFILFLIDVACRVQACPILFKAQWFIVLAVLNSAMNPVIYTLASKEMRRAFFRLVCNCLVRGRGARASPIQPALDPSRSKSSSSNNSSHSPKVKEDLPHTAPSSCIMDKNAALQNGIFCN

Homo sapiens = organism: Homo sapiens; test: Selectivity ratio of EC50 for human S1P3 receptor to EC50 for human S1P1 receptor
Rattus norvegicus [3] = test: Immunosuppressive activity in po dosed LEW rat model assessed as inhibition of WKAH rat spleen cells-induced popliteal lymph node swelling administered qd for 4 days measured at day 4 by host versus graft reaction analysis; type: functional; conditions: 96 h, read-out: ID50 (the source's name)
Rattus norvegicus [4] = test: Immunosuppressive activity in LEW rat model assessed as inhibition of WKAH rat spleen cells-induced popliteal lymph node swelling at 1 mg/kg, po administered qd for 4 days measured at day 4 by host versus graft reaction analysis; type: functional; conditions: 96 h

Sphingosine 1-phosphate receptor 1, sequence (P21453 whole entry): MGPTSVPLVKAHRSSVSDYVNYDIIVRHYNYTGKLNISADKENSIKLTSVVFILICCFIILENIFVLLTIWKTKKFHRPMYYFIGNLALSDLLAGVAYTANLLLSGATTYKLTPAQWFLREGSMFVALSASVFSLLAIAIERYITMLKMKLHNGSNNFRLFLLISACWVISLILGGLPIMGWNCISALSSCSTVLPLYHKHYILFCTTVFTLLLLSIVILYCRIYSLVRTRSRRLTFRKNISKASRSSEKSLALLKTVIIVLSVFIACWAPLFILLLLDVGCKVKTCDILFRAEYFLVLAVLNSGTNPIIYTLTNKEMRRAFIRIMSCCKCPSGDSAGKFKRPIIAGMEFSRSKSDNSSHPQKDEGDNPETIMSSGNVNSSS

Structure (SMILES)	pEC50 [1]	pEC50 [2]	Ratio EC50 (Homo sapiens)	ED50 (Rattus norvegicus [3]) [mg/kg]	inhibition in vivo at 1 mg/kg (Rattus norvegicus [4]) [%]
Cc1ccc(Oc2ccc(-c3nc(-c4csc(CN5CC(C(=O)O)C5)c4)no3)cc2)cc1	6.96	4.92	109	–	–
CCc1cc(CN2CC(C(=O)O)C2)sc1-c1noc(-c2ccc(Oc3ccccc3)c(F)c2)n1	8.30	< 4.70	–	0.142	–
CCCCc1ccccc1Oc1ccc(-c2nc(-c3sc(CN4CC(C(=O)O)C4)cc3CC)no2)cc1	8.05	< 4.70	–	–	66
O=C(O)C1CN(Cc2ccc(-c3noc(-c4cc(-c5ccccc5)c(C(F)(F)F)s4)n3)cc2)C1	8.38	5.80	380	–	–
CCCc1cc(CN2CC(C(=O)O)C2)sc1-c1noc(-c2ccc(Oc3ccccc3)cc2)n1	7.52	4.89	433	–	–
CC(C)c1cc(CN2CC(C(=O)O)C2)sc1-c1noc(-c2ccc(Oc3ccccc3)cc2)n1	7.12	4.82	200	–	–
Cc1cc(-c2nc(-c3csc(CN4CC(C(=O)O)C4)c3)no2)ccc1Oc1ccccc1	7.68	5.52	142	–	–
O=C(O)C1CN(Cc2cc(-c3noc(-c4ccc(OCc5ccccc5)cc4)n3)cs2)C1	< 4.70	< 4.70	–	–	–
CCc1cc(CN2CC(C(=O)O)C2)sc1-c1noc(-c2ccc(Oc3ccccc3)c(OC)c2)n1	7.85	< 4.70	–	–	–
CCc1cc(CN2CC(C(=O)O)C2)sc1-c1noc(-c2ccc(Oc3ccccc3C)cc2)n1	8.52	5.35	–	–	35
CCc1cc(CN2CC(C(=O)O)C2)sc1-c1noc(-c2ccc(Oc3ccccc3)cc2)n1	8.40	< 4.70	> 5000	0.407	–
O=C(O)C1CN(Cc2cc(-c3noc(-c4cc(-c5ccccc5)c(C(F)(F)F)s4)n3)cs2)C1	8.19	6.10	123	–	–
CCc1cc(CN2CC(C(=O)O)C2)sc1-c1noc(-c2ccc(Oc3ccccc3C(C)C)cc2)n1	8.35	4.96	–	–	–
CCc1cc(CN2CC(C(=O)O)C2)sc1-c1noc(-c2ccc(Oc3ccccc3F)cc2)n1	8.07	< 4.70	–	0.369	–
CCc1cc(CN2CC(C(=O)O)C2)sc1-c1noc(-c2ccc(Oc3ccccc3Cl)cc2)n1	8.19	< 4.70	–	0.461	–
Cc1ccccc1Oc1ccc(-c2nc(-c3csc(CN4CC(C(=O)O)C4)c3)no2)cc1	7.46	5.70	57	–	–
CCc1cc(CN2CC(C(=O)O)C2)sc1-c1noc(-c2ccc(Oc3ccccc3OC)cc2)n1	8.40	4.82	–	–	74
CCCOc1ccc(-c2nc(-c3csc(CN4CC(C(=O)O)C4)c3)no2)cc1	7.22	< 4.70	> 333	–	–
CCc1cc(CN2CC(C(=O)O)C2)sc1-c1noc(-c2ccc(Oc3ccccc3)c(C)c2)n1	8.12	5.22	–	–	–
Cc1cc(CN2CC(C(=O)O)C2)sc1-c1noc(-c2ccc(Oc3ccccc3)cc2)n1	7.96	< 4.70	> 1820	–	–
CCc1ccccc1Oc1ccc(-c2nc(-c3sc(CN4CC(C(=O)O)C4)cc3CC)no2)cc1	8.19	5.00	–	–	62
CCCc1ccccc1Oc1ccc(-c2nc(-c3sc(CN4CC(C(=O)O)C4)cc3CC)no2)cc1	7.89	< 4.70	–	–	56

The remaining compounds from weak to strong by pEC50 [1], led by results:

pEC50 [1]	pEC50 [2]	Ratio EC50 (Homo sapiens)	Structure (SMILES)	ED50 (Rattus norvegicus [3]) [mg/kg]	inhibition in vivo at 1 mg/kg (Rattus norvegicus [4]) [%]
6.07	< 4.70	> 23	O=C(O)C1CN(Cc2cc(-c3noc(-c4cccc(-c5ccccc5)c4)n3)cs2)C1	–	–
6.22	< 4.70	> 33	Cc1cc(Oc2ccccc2)ccc1-c1nc(-c2csc(CN3CC(C(=O)O)C3)c2)no1	–	–
6.70	< 4.70	> 100	Cc1cccc(Oc2ccc(-c3nc(-c4csc(CN5CC(C(=O)O)C5)c4)no3)cc2)c1	–	–
7.47	< 4.70	> 588	O=C(O)C1CN(Cc2csc(-c3noc(-c4ccc(Oc5ccccc5)cc4)n3)c2)C1	–	–
7.52	< 4.70	> 666	O=C(O)C1CN(Cc2cc(-c3noc(-c4ccc(-c5ccccc5)cc4)n3)cs2)C1	–	–
7.60	< 4.70	> 800	Cc1cc(-c2noc(-c3ccc(Oc4ccccc4)cc3)n2)sc1CN1CC(C(=O)O)C1	–	–
7.92	< 4.70	> 1670	CCc1cc(-c2noc(-c3ccc(Oc4ccccc4)cc3)n2)sc1CN1CC(C(=O)O)C1	–	–
8.07	5.34	541	O=C(O)C1CN(Cc2cc(-c3noc(-c4ccc(Oc5ccccc5)cc4)n3)cs2)C1	–	–
8.30	< 4.70	–	CCc1cc(CN2CC(C(=O)O)C2)sc1-c1noc(-c2ccc(Oc3ccccc3)c(Cl)c2)n1	–	49
9.00	6.05	900	O=C(O)C1CN(Cc2ccc(-c3noc(-c4ccc(Oc5ccccc5)cc4)n3)s2)C1	–	–
